# Results reported in publication PMC10298626 (International Journal of Molecular Sciences, 2023).
# Tests used:
# iNOS = iNOS protein expression (immunoblotting) in LPS-stimulated RAW264.7 cells; format: cell-based, Mouse; conditions: 20, 40, and 80 μM pretreatment 2 h; LPS 500 ng/mL 24 h
# Procedure: (§1) RAW264.7 cells were seeded into 6-well plates (2 × 10^6 cells/well) and incubated for 24 h. The cells were incubated with 20, 40, and 80 μM of coumarin derivative 2 for 2 h, and then LPS (500 ng/mL) was added for 30 min (for phosphorylation of ERK, JNK, p38, and p65) and 24 h (for protein expression of iNOS).
# The cells were washed with PBS and lysed with radioimmunoprecipitation assay buffer containing 1 mM dithiothreitol (Wako, Tokyo, Japan), phosphatase inhibitor cocktail, 1 mM phenylmethylsulfonylfluoride, 1 mM sodium orthovanadate (Sigma), and 10 mM β-glycerophosphate (Sigma). The extracted proteins were centrifuged at 13,000× g rpm, separated via sodium dodecyl sulfate polyacrylamide gel electrophoresis, and transferred to polyvinylidene fluoride membranes. […] For detection, the antibodies were developed with Super Signal® West Femto Substrate (ThermoFisher, Waltham, MN, USA) and analyzed on a Fusion Solo Chemiluminescence System (Vilber Lourmat, Paris, France) ECL detection system.
# (§2) Figure 4 Effect of coumarin derivative 2 on iNOS protein expression in LPS-stimulated RAW264.7 cells. […] (c) RAW264.7 cells (2.0 × 10^6 cells/6 cm dish) were pretreated with coumarin derivative 2 (20, 40, and 80 μM) for 2 h and incubated with LPS (500 ng/mL) for 6 h. iNOS mRNA expression levels were measured via a real-time quantitative reverse transcription polymerase chain reaction. […]
# iNOS mRNA = iNOS mRNA expression (qRT-PCR) in LPS-stimulated RAW264.7 cells; format: cell-based, Mouse; conditions: 20, 40, and 80 μM; 2 h pretreatment, LPS 500 ng/mL 6 h
# Procedure: (§3) RAW264.7 cells were seeded into a 6-well plate (2 × 10^6 cells/well) and cultured for 24 h. The cells were treated with coumarin derivative 2 at 20, 40, and 80 μM and cultured for 2 h and with LPS (500 ng/mL) for 6 h.
# (§4) The cells were washed with phosphate-buffered saline (PBS) and lysed with the RNeasy Mini kit (Qiagen, Hilden, Germany) for RNA isolation. RNA was converted to cDNA using the AccuPower reverse transcriptase Premix Kit (Bioneer, Daejeon, Republic of Korea). A Power SYBR Green PCR Master Mix (Applied Biosystems, Waltham, MN, USA) was used to perform polymerase chain reaction amplification. Amplification conditions were selected within the Quant 3 PCR system (Applied Biosystems). The data were normalized to the amount of glyceraldehyde 3-phosphate dehydrogenase.
# as §2, with “cells. (a) RAW264.7 cells (2.0 × 10^6 cells/6 cm dish) were pretreated with coumarin derivative 2 (20, 40, and 80 μM) for 2 h and incubated with LPS (500 ng/mL) for 20 h. Whole-cell lysates were then immunoblotted with the iNOS specific antibody.” for “cells.”
# in vitro = format: cell-based; conditions: mouse, RAW264.7 cells, then LPS (500 ng/mL) 20 h, read-out: Cell viability, Average (%)
# Procedure: To investigate the anti-inflammatory activity of coumarin derivatives, cell viability was analyzed by treating RAW264.7 cells with 23 types of coumarin derivatives at concentrations of 20, 40, and 80 μM for 2 h and with LPS for 20 h.
# Mouse macrophage RAW264.7 cells were purchased from the Korea Cell Line Bank (Seoul, Republic of Korea) and cultured in Dulbecco’s Modified Eagle Medium (Corning, NY, USA) containing 10% fetal bovine serum and 1% penicillin/streptomycin at 37 °C and 5% CO2. The medium was changed every 2 days and subcultured when the cells grew > 80%.
# EZ-Cytox cell viability assay kit (Dogen, Suwon, Republic of Korea) was used to measure cell viability according to the manufacturer’s instructions. RAW264.7 cells were seeded into a 96-well plate (1 × 10^5 cells/well) and treated with coumarin derivatives at concentrations of 20, 40, and 80 μM. After 2 h, the cells were treated with LPS (500 ng/mL) and cultured for 24 h in a 37 °C, 5% CO2 incubator. The culture supernatant was treated with 10% EZ-Cytox reagent, and a microplate reader was used to measure the absorbance at 450 nm.
# p38 = experiment: LPS-induced phosphorylation of p38 (immunoblotting) in RAW264.7 cells; format: cell-based, Mouse; conditions: 20, 40, and 80 μM pretreatment 2 h; LPS 500 ng/mL 30 min
# Procedure: as §1
# (§5) The cells were washed with PBS and lysed with radioimmunoprecipitation assay buffer containing 1 mM dithiothreitol (Wako, Tokyo, Japan), phosphatase inhibitor cocktail, 1 mM phenylmethylsulfonylfluoride, 1 mM sodium orthovanadate (Sigma), and 10 mM β-glycerophosphate (Sigma). The extracted proteins were centrifuged at 13,000× g rpm, separated via sodium dodecyl sulfate polyacrylamide gel electrophoresis, and transferred to polyvinylidene fluoride membranes. Nonspecific proteins were blocked by adding 5% skim milk. After blocking, primary antibodies were incubated overnight at 4 °C. After washing with the PBS-T buffer, the secondary antibodies were treated at room temperature for 2 h. For detection, the antibodies were developed with Super Signal® West Femto Substrate (ThermoFisher, Waltham, MN, USA) and analyzed on a Fusion Solo Chemiluminescence System (Vilber Lourmat, Paris, France) ECL detection system.
# (§6) Figure 5 Inhibitory effects of coumarin derivative 2 on LPS-induced phosphorylation of MAPKs and NF-κB p65 in RAW264.7 cells. […]
# IL-6 mRNA = IL-6 mRNA expression (qRT-PCR) in LPS-stimulated RAW264.7 cells; format: cell-based, Mouse; conditions: 20, 40, and 80 μM; 2 h pretreatment, LPS 500 ng/mL 6 h
# Procedure: as §3, §4
# (§7) Figure 3 Effects of coumarin derivative 2 on IL-6 and TNF-α production and mRNA expression in LPS-stimulated RAW264.7 cells. (a) Effect of coumarin derivative 2 on TNF-α and IL-6 production in RAW264.7 cells. The RAW264.7 cells (1 × 10^5/well, 96-well plates) were pretreated with coumarin derivative 2 (20, 40, and 80 μM) for 2 h and incubated with LPS (500 ng/mL) for 20 h. An ELISA kit was used to analyze cell supernatants for TNF-α and IL-6. […] IL-6 and TNF-α mRNA expression levels were measured via a real-time quantitative reverse transcription polymerase chain reaction.
# TNF-α mRNA = TNF-α mRNA expression (qRT-PCR) in LPS-stimulated RAW264.7 cells; format: cell-based, Mouse; conditions: 20, 40, and 80 μM; 2 h pretreatment, LPS 500 ng/mL 6 h
# Procedure: as §3, §4, §7
# JNK = experiment: LPS-induced phosphorylation of JNK (immunoblotting) in RAW264.7 cells; format: cell-based, Mouse; conditions: 20, 40, and 80 μM pretreatment 2 h; LPS 500 ng/mL 30 min
# Procedure: as §1, §5, §6
compound,measurement,setting,value
N#CC1=C(N)Oc2c(c(=O)oc3ccccc23)C1c1cccc(F)c1 (stereo not drawn) [Coumarin derivative 2],iNOS expression (immunoblot),iNOS,inhibited
same,iNOS mRNA expression,iNOS mRNA,significantly suppressed
same,"viability at 22 h, 20 μM",in vitro; 20 μM for 2 h,106%
same,"viability at 22 h, 40 μM",in vitro; 40 μM for 2 h,97.1%
same,"viability at 22 h, 80 μM",in vitro; 80 μM for 2 h,101%
same,Phosphorylation of p38,p38,inhibited
same,IL-6 mRNA expression,IL-6 mRNA,significantly suppressed
same,TNF-α mRNA expression,TNF-α mRNA,significantly suppressed
same,Phosphorylation of JNK,JNK,inhibited
